Laboratory results as given in ChEMBL document CHEMBL1201862, “PubChem BioAssay data set” (2004).
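The compound was tested at five concentrations on cells cultured in 96-well plates, with a 48-hour exposure period. GI50 = concentration required for 50% inhibition of growth.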 Active and inactive are the calls of the source. Rule as the data show it: active = GI50 up to about 1.1 µM and inactive = higher.

Experiments:
Assay in all cases: growth of human tumour cells (NCI), 48 h
[1] = system: OVCAR-4
[2] = system: ACHN
[3] = system: NCI-H460
[4] = system: SK-OV-3
[5] = system: HCC 2998
[6] = system: Malme-3M
[7] = system: MDA-MB-231
[8] = system: UO-31
[9] = system: TK-10
[10] = system: RXF 393
[11] = system: KM12
[12] = system: HOP-92
[13] = system: HOP-62
[14] = system: SF-539
[15] = system: SR
[16] = system: SK-MEL-28
[17] = system: DU-145
[18] = system: MDA-N
[19] = system: SK-MEL-5
[20] = system: COLO 205

Measured: GI50

CC(=O)O[C@H]1CC[C@@]2(C)C(=CC[C@H]3[C@@H]4C[C@H](N5CCOCC5)[C@H](OC(C)=O)[C@@]4(C)CC[C@@H]32)C1
inactive: [1] > 100 µM | [2] > 100 µM | [3] > 100 µM | [4] > 100 µM | [5] > 100 µM | [6] > 100 µM | [7] > 100 µM | [8] > 100 µM | [9] > 100 µM | [10] 42.4 µM | [11] > 100 µM | [12] > 100 µM | [13] > 100 µM | [14] 78 µM | [15] 86.5 µM | [16] > 100 µM | [17] > 100 µM | [18] > 100 µM | [19] > 100 µM | [20] > 100 µM

CCOC(=O)C1=C(C)NC(C)=C(C(=O)OCCNC(=O)c2ccc(N=[N+]=[N-])cc2)C1c1ccccc1C(F)(F)F (stereo not given) [AZIDOPINE]
inactive: [1] 12.2 µM | [2] 7.64 µM | [3] 9.12 µM | [4] 13.3 µM | [5] 13.2 µM | [6] 14 µM | [7] 14 µM | [8] 4.79 µM | [9] 8.22 µM | [10] 9.57 µM | [11] 7.85 µM | [12] 2.01 µM | [13] > 21.5 µM | [14] 19.1 µM | [15] 4.44 µM | [16] 13.4 µM | [17] 10.5 µM | [18] 10.2 µM | [19] 7.85 µM | [20] 6.25 µM
